Experiment [1] concerns PARPi-resistant OVCAR8 xenografts. The experiment is described as follows: PARPi-resistant xenograft tumor growth and survival. To be noted: versus vehicle; FIG. 6A. The format is in vivo, athymic nude mice. The source says: FIG. 6: NMNAT1 inhibition kills PARPi-resistant HRD tumors in vivo. A. Growth (relative tumor volume, RTV) of parental and PARPi-resistant OVCAR8 xenografts in vivo upon PARPi (rucaparib) or vehicle treatment. B, Growth (relative tumor volume, RTV) of PARPi-resistant OVCAR8 xenografts in vivo. C, Relative tumour volumes (RTV) for individual mice treated in B after five weeks of treatment. D, Overall survival for mice bearing PARPi-resistant OVCAR8 xenografts treated with vehicle or doxycycline. For data shown in FIG. 6, the PARPi-resistant OVCAR8 cells were xenotransplanted subcutaneously in athymic nude mice. Doxycycline was supplemented in the food (625 p.p.m.).
To translate these findings into a translational setting, the inventors derived a PARPi-resistant clone from the PARPi-naive BRCA1-deficient OVCAR8 lines, expressed either doxycycline-inducible NMNAT1 or scrambled (Scr) shRNA in these cells, and xenograft them in athymic nude mice.
As expected the OVCAR8 PARPi-resistant cells were resistant to the PARPi rucaparib in vivo (FIG. 6A).

The subject of another experiment is NMNAT1−/− RPE-1 cells. The experiment is described as follows: Survival assay with PARP inhibitor. The format is cell-based. To be noted: versus WT RPE-1; FIG. 1g. The text has this: FIG. 1: a, Quantification (left) and representative images (right) of clonogenic formation of wild type (WT) and BRCA2^−/− (clones C1 and C2) RPE-1 cells with and without BRCA2 cDNA complementation, after transfection with the indicated NMNAT1 siRNAs. b, Clonogenic formation (left) and WB-analysis (right) of BRCA2 mAID HeLa cells in the presence or absence of auxin (IAA) after transduction with viral particles carrying NMNAT1 shRNA or control. c, Clonogenic formation of WT and BRCA1^−/− RPE-1 cells after transfection with siNMNAT1 #2. d, Clonogenic formation of WT and NMNAT1^−/− RPE-1 cells after transfection with the indicated BRCA1/2 siRNAs. e, Quantification (left) and representative images (right) of clonogenic formation of the indicated HR-proficient and HR-deficient cells upon siNMNAT1. f, DNA damage quantification by alkaline COMET assay of P53−/− RPE-1 cells in the presence or absence of NMNAT1. g, Survival assay of WT and NMNAT1^−/− RPE-1 cells exposed to the indicated doses of the PARP inhibitor rucaparib (PARPi).
Accumulation of DNA lesions can result in increased sensitivity to genotoxic drugs. Given that NMNAT1 functions upstream of PARP1 by providing NAD^+, the reduced PARP1 activity upon NMNAT1 loss might account for the observed synthetic lethality between NMNAT1 and BRCA.

On to `CNCc1ccc(-c2[nH]c3cc(F)cc4c3c2CCNC4=O)cc1` [rucaparib], for which, in experiment [1], the “response of tumor to PARPi in vivo” value is “resistant”. In the experiment on NMNAT1−/− RPE-1 cells, the “sensitivity to PARP inhibitor (survival)” value is “sensitized”.

The values are drawn from patent publication US20250019708A1, “METHODS FOR THE TREATMENT OF HRD CANCER AND BRCA-ASSOCIATED CANCER” (INSTITUT CURIE, priority 2021, published 2025).
